Here are results for twelve molecules from ChEMBL document CHEMBL1201862, “PubChem BioAssay data set” (2004).

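Values below derive from 48-hour exposures of cells grown in 96-well plates, with endpoints linearly interpolated between the two concentrations bracketing the appropriate inhibition level. Abbreviation: GI50, concentration required for 50% inhibition of growth.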 Active and inactive are the calls of the source. No stated cut-off is given here; in the data, active = GI50 up to about 1.1 µM and inactive = higher.

Holding throughout (experiment): NCI anticancer screen, dose series, 48 h
The subject of experiment [1] is COLO 205.
Experiment [2] has as its system NCI-H460.
Experiment [3] deals with LOX IMVI.
Experiment [4] has as its system M14.
Experiment [5] relates to CAKI-1.
Experiment [6] has as its system KM12.
For experiment [7], the system named is SNB-75.
Experiment [8] concerns SF-539.
In experiment [9] the test system is NCI-H23.
Experiment [10] concerns MDA-N.
The subject of experiment [11] is IGROV-1.
Experiment [12] deals with SK-OV-3.
Experiment [13] has as its system 786-0.
Experiment [14] deals with NCI/ADR-RES.
In experiment [15] the test system is OVCAR-5.
The subject of experiment [16] is NCI-H226.
The subject of experiment [17] is MOLT-4.
For experiment [18], the system named is CCRF-CEM.
Experiment [19] relates to HCC 2998.

For the molecule `NC(=O)/C(=C\c1ccncc1)c1cccc2ccccc12`, the GI50 was 50.5 µM (inactive) in experiment [1]; 45.1 µM (inactive) in experiment [2]; > 100 µM (inactive) in experiment [3]; 55.1 µM (inactive) in experiment [4]; > 100 µM (inactive) in experiment [5]; > 100 µM (inactive) in experiment [6]. Besides, the GI50 in experiment [7] was > 100 µM (inactive); in experiment [8], > 100 µM (inactive); in experiment [9], 91.6 µM (inactive); in experiment [10], 43.1 µM (inactive); in experiment [11], > 100 µM (inactive); in experiment [12], > 100 µM (inactive). The GI50 in experiment [13] is > 100 µM (inactive); in [14], > 100 µM (inactive); in [15], > 100 µM (inactive); in experiment [16], 38 µM (inactive); in [17] it was > 100 µM (inactive); in experiment [18] it was > 100 µM (inactive).

For `O=[N+]([O-])C(=C/C1CCCCC1)/C(=C\C1CCCCC1)[N+](=O)[O-]`, the GI50 in experiment [1] is 3.21 µM (inactive); in [2], 5.16 µM (inactive); in experiment [3] it was 2.12 µM (inactive); in experiment [4], 4.05 µM (inactive); in experiment [5] it was 3.85 µM (inactive); in [6], 11.1 µM (inactive). Further, the GI50 was 14.1 µM (inactive) in [7]; 2.18 µM (inactive) in experiment [8]; 2.99 µM (inactive) in [9]; 5.27 µM (inactive) in [11]; 20.2 µM (inactive) in experiment [19]; 21.7 µM (inactive) in [12]. Also, the GI50 was 1.84 µM (inactive) in experiment [13]; 2.47 µM (inactive) in [14]; 11.7 µM (inactive) in experiment [15]; 7.28 µM (inactive) in experiment [16]; 1.56 µM (inactive) in [17]; 2.62 µM (inactive) in experiment [18].

Consider `COc1cc(O)c2c(c1)OCC(Cc1ccc(O)cc1)C2=O` (centres undefined), for which the GI50 in experiment [1] was > 100 µM (inactive); in experiment [2], > 100 µM (inactive); in [3] it was > 100 µM (inactive); in experiment [4], > 100 µM (inactive); in experiment [5], 68.5 µM (inactive); in [6] it was > 100 µM (inactive). Besides, the GI50 in experiment [7] was 74.3 µM (inactive); in [8], > 100 µM (inactive); in experiment [9], > 100 µM (inactive); in experiment [10], > 100 µM (inactive); in experiment [11], > 100 µM (inactive); in experiment [12], > 100 µM (inactive). Further, the GI50 in [13], in experiment [14], in [15], in experiment [16], in [17] and in experiment [18] was > 100 µM (inactive) in each case.

As for `COC(=O)C(Cc1c[nH]c2ccccc12)NP(=O)(O)OCC1OC(n2cc(I)c(=O)[nH]c2=O)CC1O` (centres undefined), the GI50 in [1], in experiment [2], in [3], in [4], in [5] and in experiment [6] was > 100 µM (inactive) throughout. For the same molecule, the GI50 in [7], in experiment [8], in experiment [9], in [10], in experiment [11] and in [12] was > 100 µM (inactive) in each case. Further, the GI50 in [13], in [14], in experiment [15], in experiment [16], in experiment [17] and in experiment [18] was > 100 µM (inactive) throughout.

As for `CC12CCC(C/C1=N\NC(N)=O)C2(C)C` (centres undefined), the GI50 in experiment [1], in experiment [2], in experiment [3], in [4], in experiment [5] and in experiment [6] was > 100 µM (inactive) in each case. Also, the GI50 in [7], in experiment [9], in experiment [10], in [11], in experiment [12] and in [13] was > 100 µM (inactive) throughout. Besides, the GI50 in experiment [14], in experiment [15], in experiment [16], in experiment [17] and in [18] was > 100 µM (inactive) each time.

Turning to `C[C@]12CCC(=O)C=C1CC[C@@H]1C2CC[C@]2(C)Nc3c(ncn3-c3ccc(F)cc3)CC12` (some centres undefined), the GI50 was 15.7 µM (inactive) in experiment [1]; 21.7 µM (inactive) in experiment [2]; 23.8 µM (inactive) in experiment [4]; 46.2 µM (inactive) in [5]; 17.2 µM (inactive) in experiment [6]; 17.5 µM (inactive) in experiment [7]. Also, the GI50 in experiment [8] is 11.7 µM (inactive); in experiment [9], 23.1 µM (inactive); in experiment [10] it was 11.8 µM (inactive); in experiment [11] it was 52.4 µM (inactive); in experiment [19], 20.2 µM (inactive); in [12], 39.3 µM (inactive). The GI50 in [13] was 31 µM (inactive); in [15] it was 40.7 µM (inactive); in [16] it was 49.2 µM (inactive); in experiment [17] it was 23.3 µM (inactive); in [18], 21 µM (inactive).

With `O=C(NS(=O)(=O)Nc1ccc(Cl)cc1)OCc1ccc(Cl)cc1Cl`, the GI50 in experiment [1] is 16.7 µM (inactive); in experiment [2], 13.4 µM (inactive); in [3], 22.6 µM (inactive); in experiment [4], 41 µM (inactive); in experiment [6] it was 21.4 µM (inactive); in experiment [7], 35.7 µM (inactive). Besides, the GI50 was 19.9 µM (inactive) in [8]; 20.2 µM (inactive) in [9]; 14.7 µM (inactive) in [10]; 17.8 µM (inactive) in [11]; 12.1 µM (inactive) in experiment [19]; 21.1 µM (inactive) in experiment [12]. Also, the GI50 is 34.6 µM (inactive) in [13]; 21.9 µM (inactive) in experiment [14]; 24.2 µM (inactive) in [15]; 46.2 µM (inactive) in experiment [17]; 57 µM (inactive) in experiment [18].

`CCN(CC)CCNc1ccc([N+](=O)[O-])c2nc3ccccc3c(N)c12`: the GI50 in experiment [1] was 0.162 µM (active); in experiment [2], 0.291 µM (active); in [3] it was 0.333 µM (active); in experiment [4], 0.456 µM (active); in [5] it was 1.23 µM (inactive); in experiment [6] it was 0.293 µM (active). Besides, the GI50 was 1.17 µM (inactive) in experiment [7]; 0.446 µM (active) in experiment [8]; 0.485 µM (active) in experiment [9]; 0.504 µM (active) in [10]; 0.377 µM (active) in [11]; 0.726 µM (active) in [12]. The GI50 in [13] is 0.361 µM (active); in [14], 0.401 µM (active); in experiment [15], 0.621 µM (active); in experiment [16], 1.35 µM (inactive); in [17], 0.223 µM (active); in experiment [18] it was 0.251 µM (active).

Take `COc1cc(C2C3=C(COC3=O)OC(C)(C)Oc3cc4c(cc32)OCO4)cc(OC)c1O` (centres undefined): the GI50 was 2.44 µM (inactive) in experiment [1]; 0.643 µM (active) in experiment [2]; 0.706 µM (active) in [3]; 1.09 µM (active) in experiment [4]; 1.87 µM (inactive) in experiment [5]; 0.531 µM (active) in experiment [6]. In addition, the GI50 in experiment [8] was 0.467 µM (active); in [9], 1.86 µM (inactive); in experiment [10], 0.199 µM (active); in experiment [11], 0.989 µM (active); in experiment [19], 2.27 µM (inactive); in [12], 0.757 µM (active). In addition, the GI50 in [13] is 1.12 µM (active); in [14], 0.39 µM (active); in experiment [15], 3.58 µM (inactive); in experiment [17], 3.11 µM (inactive); in experiment [18], 1.36 µM (inactive).

Take `CC(Br)C(=O)c1ccc2cc(Br)c3ccccc3c2c1` (centres undefined): the GI50 in experiment [2] was 16 µM (inactive); in experiment [3], 6.79 µM (inactive); in [4], 16.1 µM (inactive); in experiment [5], 16.1 µM (inactive); in [6], 17.2 µM (inactive); in experiment [7], 15.2 µM (inactive). For the same molecule, the GI50 was 16 µM (inactive) in [9]; 12.9 µM (inactive) in experiment [10]; 13.1 µM (inactive) in [11]; 15.7 µM (inactive) in [19]; 16.8 µM (inactive) in experiment [12]; 3.34 µM (inactive) in experiment [13]. Besides, the results for the GI50 in experiment [14], in [15] and in experiment [18] were 18 µM (inactive), 17 µM (inactive) and 2.45 µM (inactive), respectively.

Consider `O=c1c(C(c2cnc3ccccc3c2)c2c(O)oc3ccccc3c2=O)c(O)oc2ccccc12`, for which the GI50 in experiment [1] is 60.7 µM (inactive); in experiment [2], 27.6 µM (inactive); in experiment [3], 40.1 µM (inactive); in [5] it was 41.3 µM (inactive); in experiment [6] it was 37.4 µM (inactive); in [7] it was 13.5 µM (inactive). Moreover, the GI50 was 41.7 µM (inactive) in experiment [9]; 21.4 µM (inactive) in [10]; > 100 µM (inactive) in [11]; 44.5 µM (inactive) in [13]; > 100 µM (inactive) in experiment [14]; 23.1 µM (inactive) in [16]. The GI50 in experiment [17] was 27.7 µM (inactive); in experiment [18], 55.1 µM (inactive).

For `COc1cc(CC(=O)c2ccc3c(c2)OCO3)cc(OC)c1OC`, the GI50 in experiment [1] was > 100 µM (inactive); in [2], 73.3 µM (inactive); in experiment [3], > 10 µM (inactive); in [4] it was > 100 µM (inactive); in experiment [5], > 100 µM (inactive); in [6], 68.4 µM (inactive). For the same molecule, the GI50 in [7], in [8], in experiment [9], in experiment [11], in experiment [19] and in experiment [12] was > 100 µM (inactive) throughout. Further, the GI50 in experiment [13], in experiment [15], in experiment [16], in [17] and in experiment [18] was > 100 µM (inactive) throughout.
